pIC50: −log10 of the molar value.

The first test deals with T1, glucagon receptor (Homo sapiens, UniProt P47871).
T1 construct: expressed in transfected cells; host or cells: Chinese Hamster Ovary cells (CHO-HGR), membranes
T1 sequence (P47871 26-477): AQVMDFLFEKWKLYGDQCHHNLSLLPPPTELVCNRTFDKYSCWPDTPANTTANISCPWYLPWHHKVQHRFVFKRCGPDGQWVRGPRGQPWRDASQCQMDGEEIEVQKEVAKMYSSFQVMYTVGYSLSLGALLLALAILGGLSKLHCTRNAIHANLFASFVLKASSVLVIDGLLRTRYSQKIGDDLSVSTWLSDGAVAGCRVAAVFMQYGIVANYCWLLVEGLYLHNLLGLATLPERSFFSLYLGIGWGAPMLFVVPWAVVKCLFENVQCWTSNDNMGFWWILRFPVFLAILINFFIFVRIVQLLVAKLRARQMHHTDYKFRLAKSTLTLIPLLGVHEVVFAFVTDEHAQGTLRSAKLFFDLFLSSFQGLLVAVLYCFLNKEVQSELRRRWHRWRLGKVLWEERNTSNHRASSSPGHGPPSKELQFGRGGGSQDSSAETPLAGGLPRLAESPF
The test can be described thus: glucagon receptor binding assay (125I-glucagon, CHO-HGR membranes). The settings on record: 20 μM; reported where 20 μM did not reduce glucagon binding by 50%. The gist of the method:
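Membranes from CHO cells expressing glucagon receptor (10 ug protein) in Tris pH 7.4 buffer with EDTA, BSA and bacitracin, incubated with test compound and 125I-glucagon (9 fmol) 60 min at room temperature. Bound radioactivity counted after filtration; nonspecific binding defined with 1 μM native glucagon; 0.5% DMSO.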
As to `CC(C)c1nc(C(C)C)c(CCCCO)c(-c2ccc(F)cc2)c1CO` [Example 88, 2,6-Diisopropyl-3-hydroxymethyl-4-(4-fluorophenyl)-5-(4-hydroxy-butyl)pyridine], at 20 µM the inhibition was 24.8%.
`CC(C)c1nc(C(C)C)c(CCCN(C)C)c(-c2ccc(F)cc2)c1CO` [Example 89, 2,6-Diisopropyl-3-hydroxymethyl-4-(4fluorophenyl)-5-[(3-dimethyl-amino)propyl]pyridine]: the inhibition (usually the drop in the measured response relative to a control, in per cent) at 20 µM stood at 36%.
`CC(C)c1nc(C(C)C)c(CCCCCCCN(C)C)c(-c2ccc(F)cc2)c1CO` [Example 90] registered an inhibition at 20 µM of 29.1%.
In turn, `CC(C)c1nc(C(C)C)c(CCCCCCCCC(=O)O)c(-c2ccc(F)cc2)c1CO` [Example 91] showed an inhibition at 20 µM of 14.2%.
Same read-out and setting: the figure for `CC(C)c1nc(C(C)C)c(CCCC(=O)O)c(-c2ccc(F)cc2)c1CO` [Example 92, 2,6-Diisopropyl-3-hydroxymethyl-4-(4-fluorophenyl)-5-(3carboxypropyl)pyridine] is 11.6%; for `CCCCCc1c(C(C)C)nc(C(C)C)c(CCO)c1-c1ccc(F)cc1` [Example 119, 2,6-Diisopropyl-3-(2-hydroxyethyl)-4-(4fluorophenyl)-5-pentylpyridine] it is 30.2%.
Take `CCCCCc1c(C(C)C)nc(C(C)C)c(CNC)c1-c1ccc(F)cc1` [Example 120, 2,6-Diisopropyl-3-methylaminomethyl-4-(4-fluorophenyl)-5-pentyl-pyridine]: 20 µM produced 37% inhibition.
`CCCCCc1c(C(C)C)nc(C(C)C)c(CN)c1-c1ccc(F)cc1` [Example 121, 2,6-Diisopropyl-3-aminomethyl-4-(4fluorophenyl)-5-pentylpyridine] came in with an inhibition at 20 µM of 26.2%.
As for `CCCCCc1c(C(C)C)nc(C(C)C)c(CN(C)C)c1-c1ccc(F)cc1` [Example 122, 2,6-Diisopropyl-3-(dimethylamino)methyl-4-(4-fluorophenyl)-5-pentyl-pyridine], the inhibition at 20 µM stood at 7.54%.
Turning to `CCCCCc1c(C(C)C)nc(C(C)C)c(CNCC)c1-c1ccc(F)cc1` [Example 123, 2,6-Diisopropyl-3-(ethylamino)methyl-4-(4-fluorophenyl)-5-pentylpyridine], the inhibition at 20 µM worked out at 49.2%.
In the case of `CCC/C=C/c1c(C(C)C)nc(C(C)C)c(CO)c1-c1ccc(C(F)(F)F)cc1` [Example 125, 2,6-Diisopropyl-3-hydroxymethyl-4-[(4-trifluoromethyl)phenyl]-5(pent-1-enyl)pyridine], the inhibition at 20 µM amounted to 31.6%.
Regarding `CCCCCc1c(C(C)C)nc(C(C)C)c(CO)c1-c1ccc(C(F)(F)F)cc1` [Example 126, 2,6-Diisopropyl-3-hydroxymethyl-4-[(4-trifluoromethyl)phenyl]-5-pentylpyridine], the inhibition at 20 µM amounted to 35.3%.
`CCCC=Cc1c(C(C)C)nc(C(C)C)c(CO)c1-c1cccc(F)c1` [Example 127, 2,6-Diisopropyl-3-hydroxymethyl-4-(3-fluorophenyl)-5-(pent-1-enyl)-pyridine] showed an inhibition at 20 µM of 45.5%.
The compound `CCCC=Cc1c(C(C)C)nc(C(C)C)c(CO)c1-c1ccc(CC)cc1` [Example 131, 2,6-Diisopropyl-3-hydroxymethyl-4-(4-ethylphenyl)-5-(pent-1-enyl)-pyridine] yielded an inhibition at 20 µM of 37.3%.
For the compound `CCCCCc1c(C(C)C)nc(C(C)C)c(CO)c1-c1ccc(CC)cc1` [Example 132, 2,6-Diisopropyl-3-hydroxymethyl-4-(4-ethylphenyl)-5-pentylpyridine], at 20 µM the inhibition was 42.5%.
Compound `CCCC=Cc1c(C(C)C)nc(C(C)C)c(CO)c1-c1ccc(C(C)C)cc1` [Example 133, 2,6-Diisopropyl-3-hydroxymethyl-4-(4-isopropylphenyl)-5-(pent-1-enyl)pyridine] had an inhibition at 20 µM of 35.5%.
For the compound `CCCCCc1c(C(C)C)nc(C(C)C)c(CO)c1-c1ccc(C(C)C)cc1` [Example 134, 2,6-Diisopropyl-3-hydroxymethyl-4-(4-isopropylphenyl)-5-pentylpyridine], at 20 µM the inhibition was 34.4%.
The compound `CCCC=Cc1c(C(C)C)nc(C(C)C)c(CO)c1-c1ccc(-c2ccccc2)cc1` [Example 135, 2,6-Diisopropyl-3-hydroxymethyl-4-[4-(phenyl)phenyl]-5-(pent-1-enyl)pyridine] gave an inhibition at 20 µM of 4.64%.
Same read-out and setting: the figure for `CCCCCc1c(C(C)C)nc(C(C)C)c(CO)c1-c1cccc(C)c1` [Example 140, 2,6-Diisopropyl-3-hydroxymethyl-4-(3-methylphenyl)-5-pentylpyridine] is 46.3%.
Regarding `CCCC=Cc1c(C(C)C)nc(C(C)C)c(CO)c1-c1ccccc1C` [Example 141, 2,6-Diisopropyl-3-hydroxymethyl-4-(2-methylphenyl)-5-(pent-1-enyl)-pyridine], the inhibition at 20 µM came to 34%.
Turning to `CCCCCc1c(C(C)C)nc(C(C)C)c(CO)c1-c1ccccc1C` [Example 142, 2,6-Diisopropyl-3-hydroxymethyl-4-(2-methylphenyl)-5pentylpyridine], the inhibition at 20 µM amounted to 33.1%.
Same read-out and setting: the figure for `CCCC=Cc1c(C(C)C)nc(C(C)C)c(CO)c1-c1cccc(Cl)c1` [Example 145, 2,6-Diisopropyl-3-hydroxymethyl-4-(3-chlorophenyl)-5-(pent-1-enyl)-pyridine] is 41.4%.
Take `CCCCCc1c(C(C)C)nc(C(C)C)c(CO)c1-c1cccc(Cl)c1` [Example 146, 2,6-Diisopropyl-3-hydroxymethyl-4-(3-chlorophenyl)-5-pentylpyridine]: the inhibition at 20 µM was found to be 48.8%.
Still for that read-out and setting: the figure for `CCCCCc1c(C(C)C)nc(C(C)C)c(CO)c1-c1ccc(Cl)cc1Cl` [Example 148, 2,6-Diisopropyl-3-hydroxymethyl-4-(2,4-dichlorophenyl)-5-pentylpyridine] is 7.78%; for `CCCC=Cc1c(C(C)C)nc(C(C)C)c(CO)c1-c1ccc(Cl)c(Cl)c1` [Example 149, 2,6-Diisopropyl3-hydroxymethyl-4-(3,4-dichlorophenyl)-5-(pent-1-enyl)pyridine] it is 39%.
As for `CCCC=Cc1c(C(C)C)nc(C(C)C)c(CO)c1-c1cccc(OCc2ccccc2)c1` [Example 152, 2,6-Diisopropyl-3-hydroxymethyl-4-(3-benzyloxyphenyl)-5-(pent-1-enyl)pyridine], 20 µM produced 25.4% inhibition.
`C#Cc1ccccc1-c1c(C=CCCC)c(C(C)C)nc(C(C)C)c1CO` [Example 156, 2,6-Diisopropyl-3-hydroxymethyl-4-(2-ethynylphenyl)-5-(pent-1-enyl)-pyridine] came in with an inhibition at 20 µM of 26.1%.
With `CCCC=Cc1c(C(C)C)nc(C(C)C)c(CO)c1-c1ccc(OCc2ccccc2)cc1` [Example 160, 2,6-Diisopropyl-3-hydroxymethyl-4-(4-benzyloxyphenyl)-5-(pent-1-enyl)pyridine], the inhibition at 20 µM is 21%.
In turn, `CCCCCc1c(C(C)C)nc(C(C)C)c(CO)c1-c1ccc(O)cc1` [Example 161, 2,6-Diisopropyl-3-hydroxymethyl-4-(4-hydroxyphenyl)-5-pentylpyridine] had an inhibition at 20 µM of 24%.

The test is the same for the next values; noted with them: 125I-glucagon; 60 min at room temperature; read-out: IC50.
For the compound `C=CCc1c(C(C)C)nc(C(C)C)c(CO)c1-c1ccc(F)cc1` [Example 87, 2,6-Diisopropyl-3-hydroxymethyl-4-(4fluorophenyl)-5-(2-propenyl)-pyridine], the pIC50 (commonly the IC50 on a negative log10 scale, so that one unit is a factor of ten) is 5.72.
Turning to `CCCCCc1c(C(C)C)nc(C(C)C)c(CO)c1-c1cccc(F)c1` [Example 128, 2,6-Diisopropyl-3-hydroxymethyl-4-(3-fluorophenyl)-5-pentylpyridine], the pIC50 was 5.52.
On to `CCCC=Cc1c(C(C)C)nc(C(C)C)c(CO)c1-c1ccc(C)cc1` [Example 129, 2,6-Diisopropyl-3-hydroxymethyl-4-(4-methylphenyl)-5-(Pent-1-enyl)-pyridine], for which the pIC50 was 5.82.
Same read-out and setting: as for `CCCC=Cc1c(C(C)C)nc(C(C)C)c(CO)c1-c1ccccc1F` [Example 137, 2,6-Diisopropyl-3-hydroxymethyl-4-(2-fluorophenyl)-5-(pent-1-enyl)-pyridine], the figure is 4.96; as for `CCCCCc1c(C(C)C)nc(C(C)C)c(CO)c1-c1ccccc1F` [Example 138, 2,6-Diisopropyl-3-hydroxymethyl-4-(2-fluorophenyl)-5-pentylpyridine], 5.05.
As for `CCCC=Cc1c(C(C)C)nc(C(C)C)c(CO)c1-c1cccc(C)c1` [Example 139, 2,6-Diisopropyl-3-hydroxymethyl-4-(3-methylphenyl)-5-(pent-1-enyl)-pyridine], the pIC50 is 4.77.
Turning to `CCCC=Cc1c(C(C)C)nc(C(C)C)c(CO)c1-c1ccc(Cl)cc1` [Example 143, 2,6-Diisopropyl-3-hydroxymethyl-4-(4-chlorophenyl)-5-(pent-1-enyl)pyridine], the pIC50 is 6.05.
Still for that read-out and setting: as for `CCCCCc1c(C(C)C)nc(C(C)C)c(CO)c1-c1ccc(Cl)cc1` [Example 144, 2,6-Diisopropyl-3-hydroxymethyl-4-(4-chlorophenyl)-5-pentylpyridine], the figure is 6.10.
Consider `CCCC=Cc1c(C(C)C)nc(C(C)C)c(CO)c1-c1ccc(F)cc1F` [Example 150, 2,6-Diisopropyl-3-hydroxymethyl-4-(2,4-difluorophenyl)-5-(pent-1-enyl)pyridine], for which the pIC50 is 5.35.
Turning to `CCCCCc1c(C(C)C)nc(C(C)C)c(CO)c1-c1cccc(O)c1` [Example 153, 2,6-Diisopropyl-3-hydroxymethyl-4-(3-hydroxyphenyl)-5-pentylpyridine], the pIC50 is 5.22.
For the compound `CCCC=Cc1c(C(C)C)nc(C(C)C)c(CO)c1-c1ccc(F)c(F)c1` [Example 158, 2,6-diisopropyl-3-hydroxymethyl-4-(3,4-difluorophenyl)-5-(pent-1-enyl)pyridine], the pIC50 is 5.74.
For the compound `CCCCCc1c(C(C)C)nc(C(C)C)c(CO)c1-c1ccc(F)c(F)c1` [Example 159, 2,6-Diisopropyl-3-hydroxymethyl-4-(3,4-difluorophenyl)-5-pentyl-pyridine], the pIC50 is 5.96.

For the origin of these results see patent publication US6218431A, “Substituted biphenyls” (Bayer Corporation, priority 1997, dated 2001).
